{"source": "paper PMC11272598", "about": "“RG7774 (Vicasinabin), an orally bioavailable cannabinoid receptor 2 (CB2R) agonist, decreases retinal vascular permeability, leukocyte adhesion, and ocular inflammation in animal models” (Frontiers in Pharmacology, 2024)", "key": {"human CB2R": {"biological_target": "T1, human CB2R (Homo sapiens, UniProt P34972)", "T1 construct": "bgal (beta-galactosidase fragment of the PathHunter system); host or cells: CHO-K1", "T1 sequence (P34972 whole entry, the tested form may be a part)": "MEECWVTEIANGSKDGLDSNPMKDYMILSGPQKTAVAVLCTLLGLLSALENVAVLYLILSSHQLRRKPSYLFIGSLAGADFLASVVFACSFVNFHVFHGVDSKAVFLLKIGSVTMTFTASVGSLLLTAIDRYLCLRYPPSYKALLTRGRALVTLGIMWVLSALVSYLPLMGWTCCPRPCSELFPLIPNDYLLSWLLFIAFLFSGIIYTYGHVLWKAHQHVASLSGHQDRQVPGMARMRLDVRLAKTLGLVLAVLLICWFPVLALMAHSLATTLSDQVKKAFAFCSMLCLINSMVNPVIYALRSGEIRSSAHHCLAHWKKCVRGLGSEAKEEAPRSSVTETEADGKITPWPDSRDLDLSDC", "test": "Forskolin-stimulated cAMP assay in CHO cells", "format": "cell-based", "experimental": "(§1) The inhibitory effects of RG7774 on forskolin-stimulated accumulation of cAMP were determined using the cAMP-Nano-TRF detection kit (Roche Diagnostics, Penzberg, Germany), as previously described ([Porter et al., 2019]). CHOK1hCB1_bgal, CHOK1mCB2_bgal, and CHOK1hCB2_bgal cells (DiscoveRx, Fremont, CA, United States) were seeded 17–24 h prior to the experiment at a density of 3 × 10^4 cells per well in a black 96-well plate with a flat, clear bottom (Corning, Wiesbaden, Germany) prior to incubating in 5% CO2 at 37°C in a humidified incubator. The growth medium was exchanged with Krebs Ringer bicarbonate buffer containing 1 mM IBMX and 0.1% fatty acid-free BSA and incubated at 30°C for 1 h. RG7774 or positive control (CP55940) (1 µM) was added to a 0.1 mL final assay volume and the mixture was incubated at 30°C for 30 min. The assay was stopped by adding 50 μL 3x lysis reagent and shaking for 2 h at RT. The time-resolved energy transfer was measured using an LF502 Nanoscan FLT (IOM, Berlin, Germany) equipped with a laser excitation source. cAMP content was determined from a standard curve spanning 10–0.13 nM cAMP. Efficacies were expressed as a percentage relative to the positive control."}, "recombinant mouse CB2R": {"biological_target": "T2, recombinant mouse CB2R (Mus musculus, UniProt P47936)", "T2 construct": "bgal (beta-galactosidase fragment of the PathHunter system); host or cells: CHO-K1", "T2 sequence (P47936 whole entry, the tested form may be a part)": "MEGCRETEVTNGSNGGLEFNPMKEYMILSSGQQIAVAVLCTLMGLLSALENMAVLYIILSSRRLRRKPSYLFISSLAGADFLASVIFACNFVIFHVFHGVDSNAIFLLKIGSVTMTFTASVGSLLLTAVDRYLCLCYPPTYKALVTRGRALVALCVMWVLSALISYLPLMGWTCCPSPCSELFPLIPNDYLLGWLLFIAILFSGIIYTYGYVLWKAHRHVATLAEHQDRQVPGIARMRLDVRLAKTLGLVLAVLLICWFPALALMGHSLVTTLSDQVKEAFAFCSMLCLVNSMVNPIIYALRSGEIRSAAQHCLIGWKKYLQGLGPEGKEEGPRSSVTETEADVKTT", "test": "Forskolin-stimulated cAMP assay in CHO cells", "format": "cell-based", "experimental": "as §1"}, "hERG": {"biological_target": "hERG (Homo sapiens, UniProt Q12809)", "sequence (Q12809 whole entry)": "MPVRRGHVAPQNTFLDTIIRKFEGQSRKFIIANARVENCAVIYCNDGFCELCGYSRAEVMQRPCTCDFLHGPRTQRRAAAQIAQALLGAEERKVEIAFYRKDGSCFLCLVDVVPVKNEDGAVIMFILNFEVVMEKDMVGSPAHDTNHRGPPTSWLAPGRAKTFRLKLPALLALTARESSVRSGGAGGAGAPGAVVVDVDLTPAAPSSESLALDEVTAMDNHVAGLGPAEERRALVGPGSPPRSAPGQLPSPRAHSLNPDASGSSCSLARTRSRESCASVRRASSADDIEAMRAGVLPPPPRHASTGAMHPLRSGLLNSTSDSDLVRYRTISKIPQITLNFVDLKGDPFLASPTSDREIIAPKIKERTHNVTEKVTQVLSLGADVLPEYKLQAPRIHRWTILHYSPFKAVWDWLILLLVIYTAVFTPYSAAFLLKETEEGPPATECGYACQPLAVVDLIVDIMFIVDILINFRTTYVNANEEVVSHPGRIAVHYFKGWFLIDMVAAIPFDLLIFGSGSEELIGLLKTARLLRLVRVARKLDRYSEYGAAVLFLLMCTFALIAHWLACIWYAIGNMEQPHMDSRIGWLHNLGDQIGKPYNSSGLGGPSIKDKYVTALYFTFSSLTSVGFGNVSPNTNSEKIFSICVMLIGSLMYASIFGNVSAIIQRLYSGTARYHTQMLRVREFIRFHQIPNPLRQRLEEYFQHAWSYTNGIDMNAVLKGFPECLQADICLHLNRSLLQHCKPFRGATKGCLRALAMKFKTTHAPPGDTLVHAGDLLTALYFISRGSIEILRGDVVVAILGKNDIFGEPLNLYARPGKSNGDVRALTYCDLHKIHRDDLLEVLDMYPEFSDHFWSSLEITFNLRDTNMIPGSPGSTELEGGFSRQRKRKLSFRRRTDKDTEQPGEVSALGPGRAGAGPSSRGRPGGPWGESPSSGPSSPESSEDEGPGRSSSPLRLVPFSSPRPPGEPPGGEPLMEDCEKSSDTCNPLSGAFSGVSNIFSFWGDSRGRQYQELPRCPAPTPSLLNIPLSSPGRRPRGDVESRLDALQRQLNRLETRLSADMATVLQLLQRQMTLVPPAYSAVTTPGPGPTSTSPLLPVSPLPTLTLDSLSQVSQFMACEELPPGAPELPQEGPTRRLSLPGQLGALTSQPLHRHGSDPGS", "test": "hERG inhibition", "from_the_text": "TABLE 2 Physicochemical and ADMET profile for RG7774."}, "[1]": {"system": "LPS-induced leukocyte adhesion", "test": "LPS-induced leukocyte adhesion in rats with EIU (IVM)", "format": "in vivo, Lewis rats", "conditions": "IV 1.0 mg/kg, 6 h after LPS", "experimental": "Male BALB/c mice aged 8–10 weeks and weighing 21–26 g (Charles River, QC, Canada) were housed in individually ventilated Allentown cages (Allentown Inc., NJ, United States). Maximum density was n = 5 per cage, with the same litter and sex. Male Lewis rats aged 7–10 weeks and weighing 200–300 g (Charles River, QC, Canada) were housed in static cages (Allentown Inc., NJ, United States), n = 2 per cage with the same litter and sex. Both mice and rats were maintained in a controlled environment (21°C–22°C, humidity range 40%–60%, and a 12 h light/dark cycle), with unrestricted access to food and water. All experiments were conducted in accordance with the standards and procedures of the Canadian Council on Animal Care ([CCAC, 2024]) and were approved by the Dalhousie University Committee on Laboratory Animals. The protocol #13-027 was approved for experimental work in mice. […] All experiments were performed and are reported in accordance with the ARRIVE guidelines ([Kilkenny et al., 2010]; [McGrath et al., 2010]). […]\nIVM was used for in vivo investigations of LPS-induced leukocyte recruitment as previously described ([Toguri et al., 2014]). […] The depth of anesthesia throughout the procedure was assessed by the absence of a toe-pinch reflex. […]"}}, "note": "Several values for one entry are separate records, joined by “and”; a condition that tells them apart may be missing. Equal values may be shown once."}
{"compound": "Cn1nnnc1Cn1nnc2c(N3CC[C@H](O)C3)nc(C(C)(C)C)nc21", "note": "[RG7774, (S)-1-(5-tert-butyl-3-[(1-methyl-1H-tetrazol-5-yl)methyl]-3H-[1,2,3]triazolo[4,5-d]pyrimidin-7-yl)pyrrolidin-3-ol]", "values": [{"measurement": "EC50", "setting": "human CB2R; EC50, inhibition of forskolin-induced cAMP, human CB2R, recombinant CHO cells", "value": "2.8 nM and 2.81 nM"}, {"measurement": "functional affinity for human CB2R over CB1R", "setting": "human CB2R; cAMP assays", "value": "> 3,600 fold"}, {"measurement": "efficacy compared to maximum efficacy of CP55940, human CB2R", "setting": "human CB2R; cAMP, CHO cells", "value": "full agonist"}, {"measurement": "EC50", "setting": "recombinant mouse CB2R", "value": "2.6 ± 0.14", "unit": "nM"}, {"measurement": "efficacy compared to maximum efficacy of CP55940, mouse CB2R", "setting": "recombinant mouse CB2R; cAMP, CHO cells", "value": "full agonist"}, {"measurement": "IC50", "setting": "hERG", "value": "> 20", "unit": "µM"}, {"measurement": "decrease in leukocyte adhesion compared to vehicle control", "setting": "[1]", "value": 60, "unit": "%"}]}
